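Test compounds were applied to cells in 96-well plates for 48 hours at 5 doses. Definition used: TGI = concentration required for complete inhibition of growth.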
Legend:
Experiment in all cases: DTP human tumour cell line panel, 48 h
T-47D breast = test system: T-47D breast
PC-3 prostate = test system: PC-3 prostate
NCI/ADR-RES ovarian = test system: NCI/ADR-RES ovarian
RPMI-8226 leukemia = test system: RPMI-8226 leukemia
SK-MEL-2 melanoma = test system: SK-MEL-2 melanoma
SR leukemia = test system: SR leukemia
CAKI-1 renal = test system: CAKI-1 renal
HCT-116 colon = test system: HCT-116 colon
TK-10 renal = test system: TK-10 renal
KM12 colon = test system: KM12 colon
U251 CNS = test system: U251 CNS
SN12C renal = test system: SN12C renal
NCI-H226 lung = test system: NCI-H226 lung
NCI-H522 lung = test system: NCI-H522 lung
MDA-MB-231 breast = test system: MDA-MB-231 breast
HOP-62 NSCLC = test system: HOP-62 NSCLC
CCRF-CEM leukemia = test system: CCRF-CEM leukemia
SK-MEL-5 melanoma = test system: SK-MEL-5 melanoma
EKVX NSCLC = test system: EKVX NSCLC
DU-145 prostate = test system: DU-145 prostate
SF-268 CNS = test system: SF-268 CNS
SK-MEL-28 melanoma = test system: SK-MEL-28 melanoma
UACC-62 melanoma = test system: UACC-62 melanoma
IGROV1 ovarian = test system: IGROV1 ovarian
UO-31 renal = test system: UO-31 renal
OVCAR-8 ovarian = test system: OVCAR-8 ovarian
SNB-75 CNS = test system: SNB-75 CNS
A549 NSCLC = test system: A549 NSCLC
SNB-19 CNS = test system: SNB-19 CNS
RXF 393 renal = test system: RXF 393 renal
K-562 leukemia = test system: K-562 leukemia
786-0 renal = test system: 786-0 renal
A498 renal = test system: A498 renal
HOP-92 NSCLC = test system: HOP-92 NSCLC
SF-295 CNS = test system: SF-295 CNS
SK-OV-3 ovarian = test system: SK-OV-3 ovarian
HL-60(TB) leukemia = test system: HL-60(TB) leukemia
OVCAR-5 ovarian = test system: OVCAR-5 ovarian
HCC-2998 colon = test system: HCC-2998 colon
LOX IMVI melanoma = test system: LOX IMVI melanoma
M14 melanoma = test system: M14 melanoma
ACHN renal = test system: ACHN renal
HCT-15 colon = test system: HCT-15 colon
OVCAR-4 ovarian = test system: OVCAR-4 ovarian
NCI-H460 lung = test system: NCI-H460 lung
HS 578T breast = test system: HS 578T breast
MALME-3M melanoma = test system: MALME-3M melanoma
NCI-H23 lung = test system: NCI-H23 lung
HT29 colon = test system: HT29 colon
BT-549 breast = test system: BT-549 breast
UACC-257 melanoma = test system: UACC-257 melanoma
MCF7 breast = test system: MCF7 breast
MDA-N = test system: MDA-N
MDA-MB-435 = test system: MDA-MB-435
COLO 205 colon = test system: COLO 205 colon
SW-620 colon = test system: SW-620 colon
OVCAR-3 ovarian = test system: OVCAR-3 ovarian
SF-539 CNS = test system: SF-539 CNS
DMS 273 small cell lung = test system: DMS 273 small cell lung
DMS 114 small cell lung = test system: DMS 114 small cell lung
DLD-1 colon = test system: DLD-1 colon
MOLT-4 leukemia = test system: MOLT-4 leukemia
KM20L2 colon = test system: KM20L2 colon
M19-MEL melanoma = test system: M19-MEL melanoma
LXFL 529 NSCLC = test system: LXFL 529 NSCLC
SNB-78 CNS = test system: SNB-78 CNS

Measured: TGI

O=C(O)CCNc1ncnc2nc[nH]c12
not listed: SF-539 CNS | DMS 273 small cell lung | DMS 114 small cell lung | DLD-1 colon | MOLT-4 leukemia | KM20L2 colon | M19-MEL melanoma | LXFL 529 NSCLC | SNB-78 CNS
> 100 µM: all other assays above

Cc1c2n(c(=O)[nH]c1=O)C1OC(CO)C(N=[N+]=[N-])C1O2 (centres undefined)
not listed: T-47D breast | PC-3 prostate | NCI/ADR-RES ovarian | MDA-MB-231 breast | DU-145 prostate | OVCAR-5 ovarian | HCC-2998 colon | M14 melanoma | HS 578T breast | MALME-3M melanoma | BT-549 breast | MCF7 breast | MDA-N | MDA-MB-435
> 100 µM: all other assays above

From PubChem BioAssay (NCI)
